Starred links: 1 amine or outer side, 2 acyl side, 3 side chain; linkers in the order of their positions; H or OH if unused. Non-standard residues stand in square brackets, D forms with d. Residues, ends and D or L forms follow the SMILES beside them. *: point of attachment. X1 = O=C(Cc1ccc(N[*:1])cc1)[*:2]; NH(2-Me-phenyl) = Cc1ccccc1N*; CO = O=C([*:1])[*:2]
Tests used:
[1] = molecular target: T1, Integrin alpha-4/beta-7 (Homo sapiens, UniProt P13612+P26010); assay: Inhibition of [125I]VCAM-Ig binding to alpha4-beta7 integrin of human RPMI-8866 cells; format: cell-based
T1 sequence (P13612 whole entry): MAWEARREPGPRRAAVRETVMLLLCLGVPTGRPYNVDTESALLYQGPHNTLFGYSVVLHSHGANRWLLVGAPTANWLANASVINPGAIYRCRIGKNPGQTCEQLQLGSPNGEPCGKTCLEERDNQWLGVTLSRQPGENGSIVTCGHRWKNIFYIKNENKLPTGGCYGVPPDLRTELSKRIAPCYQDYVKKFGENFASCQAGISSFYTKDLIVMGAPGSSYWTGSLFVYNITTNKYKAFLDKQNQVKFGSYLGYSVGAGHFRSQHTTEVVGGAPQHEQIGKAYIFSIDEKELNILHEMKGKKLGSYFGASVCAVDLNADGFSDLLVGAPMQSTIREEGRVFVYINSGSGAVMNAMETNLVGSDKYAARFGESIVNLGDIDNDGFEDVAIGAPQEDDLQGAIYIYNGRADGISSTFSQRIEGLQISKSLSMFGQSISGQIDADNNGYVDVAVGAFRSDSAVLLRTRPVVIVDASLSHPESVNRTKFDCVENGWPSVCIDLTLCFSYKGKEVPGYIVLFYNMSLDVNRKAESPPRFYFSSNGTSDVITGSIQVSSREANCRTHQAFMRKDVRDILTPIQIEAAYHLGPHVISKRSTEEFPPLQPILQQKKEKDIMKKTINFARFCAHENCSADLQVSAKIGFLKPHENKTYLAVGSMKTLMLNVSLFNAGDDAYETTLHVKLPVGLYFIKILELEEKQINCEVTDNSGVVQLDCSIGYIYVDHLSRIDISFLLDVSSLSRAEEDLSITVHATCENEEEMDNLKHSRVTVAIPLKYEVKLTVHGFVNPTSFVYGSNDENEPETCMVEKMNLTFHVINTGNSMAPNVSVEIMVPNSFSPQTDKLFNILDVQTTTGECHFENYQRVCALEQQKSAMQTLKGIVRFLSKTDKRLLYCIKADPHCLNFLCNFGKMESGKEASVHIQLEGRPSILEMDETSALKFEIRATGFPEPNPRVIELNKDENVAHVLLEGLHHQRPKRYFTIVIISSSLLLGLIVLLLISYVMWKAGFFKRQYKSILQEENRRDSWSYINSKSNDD
T1 sequence (P26010 whole entry): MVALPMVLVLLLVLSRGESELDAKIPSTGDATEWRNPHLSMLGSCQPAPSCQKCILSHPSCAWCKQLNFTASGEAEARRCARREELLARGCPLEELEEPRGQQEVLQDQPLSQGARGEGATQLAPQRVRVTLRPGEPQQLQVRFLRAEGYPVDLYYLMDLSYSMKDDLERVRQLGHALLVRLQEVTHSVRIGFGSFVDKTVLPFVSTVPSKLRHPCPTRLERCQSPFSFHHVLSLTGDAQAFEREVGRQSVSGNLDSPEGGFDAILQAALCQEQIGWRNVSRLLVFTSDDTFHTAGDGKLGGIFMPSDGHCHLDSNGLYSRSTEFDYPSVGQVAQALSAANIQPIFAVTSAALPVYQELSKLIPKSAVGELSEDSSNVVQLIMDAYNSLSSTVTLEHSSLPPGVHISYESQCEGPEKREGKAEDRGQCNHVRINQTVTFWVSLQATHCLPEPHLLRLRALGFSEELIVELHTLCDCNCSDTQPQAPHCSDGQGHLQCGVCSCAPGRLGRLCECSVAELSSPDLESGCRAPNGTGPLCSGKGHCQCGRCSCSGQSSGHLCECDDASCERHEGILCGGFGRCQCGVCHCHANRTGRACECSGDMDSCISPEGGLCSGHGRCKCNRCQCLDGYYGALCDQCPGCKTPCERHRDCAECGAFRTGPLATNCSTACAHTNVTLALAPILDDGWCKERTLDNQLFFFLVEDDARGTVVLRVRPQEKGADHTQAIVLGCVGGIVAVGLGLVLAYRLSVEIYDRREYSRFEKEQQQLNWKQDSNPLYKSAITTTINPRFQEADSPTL

[2] = molecular target: Integrin alpha-4/beta-1 (Homo sapiens, UniProt P05556+P13612); assay: Antagonistic activity against VLA-4 integrin of human jurkat cells using [125I]VCAM-Ig as radioligand; format: functional, cell-based
[3] = molecular target: T1, Integrin alpha-4/beta-7; assay: Inhibition of [125I]MAdCAM-Ig binding to alpha4-beta7 integrin of human RPMI-8866 cells; format: cell-based
[4] = Plasma clearance in Sprague-Dawley rats; format: ADME, organism-based; settings: rat, read-out: Clp

Integrin alpha-4/beta-1, sequence (P05556 whole entry, one chain of several): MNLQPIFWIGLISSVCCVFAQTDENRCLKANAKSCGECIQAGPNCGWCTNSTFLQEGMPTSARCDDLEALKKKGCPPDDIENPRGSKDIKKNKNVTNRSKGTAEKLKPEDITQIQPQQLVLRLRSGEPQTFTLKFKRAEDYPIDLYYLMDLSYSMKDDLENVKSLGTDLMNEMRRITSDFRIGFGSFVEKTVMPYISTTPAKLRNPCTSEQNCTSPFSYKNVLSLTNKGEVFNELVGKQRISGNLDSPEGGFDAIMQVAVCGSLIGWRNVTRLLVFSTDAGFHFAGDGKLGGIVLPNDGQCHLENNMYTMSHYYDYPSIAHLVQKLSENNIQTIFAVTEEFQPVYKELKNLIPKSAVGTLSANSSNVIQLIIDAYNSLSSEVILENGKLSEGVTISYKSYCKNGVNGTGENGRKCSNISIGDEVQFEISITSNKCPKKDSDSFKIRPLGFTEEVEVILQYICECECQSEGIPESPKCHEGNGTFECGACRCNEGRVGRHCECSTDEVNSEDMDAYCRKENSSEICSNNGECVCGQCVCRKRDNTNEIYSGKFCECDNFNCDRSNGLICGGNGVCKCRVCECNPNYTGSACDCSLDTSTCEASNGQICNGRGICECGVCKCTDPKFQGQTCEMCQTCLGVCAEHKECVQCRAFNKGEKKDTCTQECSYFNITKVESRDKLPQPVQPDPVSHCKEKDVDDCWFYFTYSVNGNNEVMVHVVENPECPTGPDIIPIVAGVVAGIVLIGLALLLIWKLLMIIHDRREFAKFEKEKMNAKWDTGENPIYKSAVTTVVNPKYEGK

Row | Compound | IC50 [1] | IC50 [2] | IC50 [3] | clearance [4]
1 | C[C@@]1(C(=O)N[C@@H](Cc2ccc(-c3ccccc3Cl)cc2)C(=O)O)CCCN1S(=O)(=O)c1cc(Cl)cc(Cl)c1 | 2260 nM | 192 nM | – | –
2 | COC(=O)c1ccccc1-c1ccc(C[C@H](NC(=O)[C@@H]2CCCN2S(=O)(=O)c2cc(Cl)cc(Cl)c2)C(=O)O)cc1 | – | 0.15 nM | – | –
3 | CCCC[C@H](NC(=O)[C@@H]1CCCN1S(=O)(=O)c1ccc(OC)c(OC)c1)C(=O)O | – | 45 nM | – | –
4 | CNC(=O)c1ccccc1-c1ccc(C[C@H](NC(=O)[C@@H]2CCCN2S(=O)(=O)c2cc(Cl)cc(Cl)c2)C(=O)O)cc1 | – | 0.1 nM | – | –
5 | N#Cc1cccc(-c2ccc(C[C@H](NC(=O)[C@@H]3CCCN3S(=O)(=O)c3cc(Cl)cc(Cl)c3)C(=O)O)cc2)c1 | – | 0.39 nM | – | –
6 | CC(C)C(=O)Oc1cccc(OC(=O)C(C)C)c1-c1ccc(C[C@H](NC(=O)[C@]2(C)CCCN2S(=O)(=O)c2cc(Cl)cc(Cl)c2)C(=O)O)cc1 | – | 4.5 nM | 3550 nM | –
7 | O=Cc1ccccc1-c1ccc(C[C@H](NC(=O)[C@@H]2CCCN2S(=O)(=O)c2cc(Cl)cc(Cl)c2)C(=O)O)cc1 | – | 0.22 nM | – | –
8 | COC(=O)c1cccc(-c2ccc(C[C@H](NC(=O)[C@@H]3CCCN3S(=O)(=O)c3cc(Cl)cc(Cl)c3)C(=O)O)cc2)c1 | – | 0.4 nM | – | –
9 | O=C(O)c1ccccc1-c1ccc(C[C@H](NC(=O)[C@@H]2CCCN2S(=O)(=O)c2cc(Cl)cc(Cl)c2)C(=O)O)cc1 | – | 0.95 nM | – | –
10 | C[C@@]1(C(=O)N[C@@H](Cc2ccc(-c3nccs3)cc2)C(=O)O)CCCN1S(=O)(=O)c1cc(Cl)cc(Cl)c1 | 413 nM | 0.24 nM | – | –
11 | CN(C)C(=O)c1ccccc1-c1ccc(C[C@H](NC(=O)[C@@H]2CCCN2S(=O)(=O)c2cc(Cl)cc(Cl)c2)C(=O)O)cc1 | – | 0.13 nM | – | –
12 | COc1ccc(S(=O)(=O)N2Cc3ccccc3C[C@H]2C(=O)N[C@@H](Cc2ccc3ccccc3c2)C(=O)O)cc1OC | – | 7 nM | – | –
13 | O=C(O)[C@H](Cc1ccc(-c2ccccc2F)cc1)NC(=O)[C@@H]1CCCN1S(=O)(=O)c1cc(Cl)cc(Cl)c1 | – | 1.02 nM | – | –
14 | CCCC[C@H](NC(=O)[C@@H]1Cc2ccccc2CN1S(=O)(=O)c1cc(Cl)cc(Cl)c1)C(=O)O | – | 10 nM | – | –
15 | NC(=O)c1ccccc1-c1ccc(C[C@H](NC(=O)[C@@H]2CCCN2S(=O)(=O)c2cc(Cl)cc(Cl)c2)C(=O)O)cc1 | – | 0.09 nM | – | –
16 | C[C@@]1(C(=O)N[C@@H](Cc2ccc(-c3cccc(C#N)c3)cc2)C(=O)O)CCCN1S(=O)(=O)c1cc(Cl)cc(Cl)c1 | 1140 nM | 1.12 nM | – | –
17 | C[C@@]1(C(=O)N[C@@H](Cc2ccc(-c3nc[nH]n3)cc2)C(=O)O)CCCN1S(=O)(=O)c1cc(Cl)cc(Cl)c1 | – | 0.52 nM | 949 nM | –
18 | COc1ccccc1-c1ccc(C[C@H](NC(=O)[C@]2(C)CCCN2S(=O)(=O)c2cc(Cl)cc(Cl)c2)C(=O)O)cc1 | 242 nM | 0.52 nM | – | 20 mL/min/kg
19 | Cc1ccc(-c2ccc(C[C@H](NC(=O)[C@@H]3CCCN3S(=O)(=O)c3cc(Cl)cc(Cl)c3)C(=O)O)cc2)cc1 | – | 1.53 nM | – | –
20 | C[C@@]1(C(=O)N[C@@H](Cc2ccc(-c3ncccc3C#N)cc2)C(=O)O)CCCN1S(=O)(=O)c1cc(Cl)cc(Cl)c1 | – | 0.14 nM | – | –

Row | Compound | IC50 [1] | IC50 [2] | IC50 [3] | clearance [4]
21 | O=C(O)[C@H](Cc1ccc(-c2ccc(F)cc2)cc1)NC(=O)[C@@H]1CCCN1S(=O)(=O)c1cc(Cl)cc(Cl)c1 | – | 0.9 nM | – | –
22 | COc1cccc(OC)c1-c1ccc(C[C@H](NC(=O)[C@@H]2CCCN2S(=O)(=O)c2cc(Cl)cc(Cl)c2)C(=O)O)cc1 | – | 0.09 nM | – | –
23 | C[C@@]1(C(=O)N[C@@H](Cc2ccc(-c3ccccc3F)cc2)C(=O)O)CCCN1S(=O)(=O)c1cc(Cl)cc(Cl)c1 | > 4000 nM | 2.4 nM | – | –
24 | C[C@@]1(C(=O)N[C@@H](Cc2ccc(-c3cccc4cc[nH]c34)cc2)C(=O)O)CCCN1S(=O)(=O)c1cc(Cl)cc(Cl)c1 | 5720 nM | 1.33 nM | – | –
25 | C[C@@]1(C(=O)N[C@@H](Cc2ccc(-c3cccnc3)cc2)C(=O)O)CCCN1S(=O)(=O)c1cc(Cl)cc(Cl)c1 | 311 nM | 0.35 nM | – | –
26 | CS(=O)(=O)c1ccccc1-c1ccc(C[C@H](NC(=O)[C@@H]2CCCN2S(=O)(=O)c2cc(Cl)cc(Cl)c2)C(=O)O)cc1 | – | 0.1 nM | – | –
27 | COc1cccc(C#N)c1-c1ccc(C[C@H](NC(=O)[C@]2(C)CCCN2S(=O)(=O)c2cc(Cl)cc(Cl)c2)C(=O)O)cc1 | – | 0.28 nM | 77 nM | –
28 | C[C@@]1(C(=O)N[C@@H](Cc2ccc(-c3ccccc3S(C)(=O)=O)cc2)C(=O)O)CCCN1S(=O)(=O)c1cc(Cl)cc(Cl)c1 | 13.2 nM | 0.16 nM | – | –
29 | CSc1ccccc1-c1ccc(C[C@H](NC(=O)[C@@H]2CCCN2S(=O)(=O)c2cc(Cl)cc(Cl)c2)C(=O)O)cc1 | – | 0.36 nM | – | –
30 | Cc1ccccc1NC(=O)Nc1ccc(CC(=O)N[C@@H](CC(C)C)C(=O)N[C@@H](CC(=O)O)C(=O)N[C@H](C(=O)N2CCC[C@H]2C(=O)O)C(C)C)cc1 ({NH(2-Me-phenyl)-CO}-[X1]LDVP-OH) | 433 nM | – | 862 nM | –
31 | O=Cc1ccc(-c2ccc(C[C@H](NC(=O)[C@@H]3CCCN3S(=O)(=O)c3cc(Cl)cc(Cl)c3)C(=O)O)cc2)cc1 | – | 0.38 nM | – | –
32 | C[C@@]1(C(=O)N[C@@H](Cc2ccc(-c3c(O)cccc3O)cc2)C(=O)O)CCCN1S(=O)(=O)c1cc(Cl)cc(Cl)c1 | – | 0.5 nM | 670 nM | –
33 | Cc1ccccc1-c1ccc(C[C@H](NC(=O)[C@@H]2CCCN2S(=O)(=O)c2cc(Cl)cc(Cl)c2)C(=O)O)cc1 | – | 1.43 nM | – | –
34 | C[C@@]1(C(=O)N[C@@H](Cc2ccc(-c3cc(C#N)ccc3F)cc2)C(=O)O)CCCN1S(=O)(=O)c1cc(Cl)cc(Cl)c1 | 1240 nM | 1.01 nM | – | –
35 | COc1ccc(S(=O)(=O)N2Cc3ccccc3C[C@H]2C(=O)N[C@@H](CCCNC(=N)N)C(=O)O)cc1OC | – | 360 nM | – | –
36 | O=Cc1cccc(-c2ccc(C[C@H](NC(=O)[C@@H]3CCCN3S(=O)(=O)c3cc(Cl)cc(Cl)c3)C(=O)O)cc2)c1 | – | 0.23 nM | – | –
37 | O=C(O)[C@H](Cc1ccc(-c2ccccc2)cc1)NC(=O)[C@@H]1CCCN1S(=O)(=O)c1cc(Cl)cc(Cl)c1 | – | 0.63 nM | – | –
38 | CSc1ccccc1-c1ccc(C[C@H](NC(=O)[C@]2(C)CCCN2S(=O)(=O)c2cc(Cl)cc(Cl)c2)C(=O)O)cc1 | 78.2 nM | 0.65 nM | – | –
39 | O=C(O)c1cccc(-c2ccc(C[C@H](NC(=O)[C@@H]3CCCN3S(=O)(=O)c3cc(Cl)cc(Cl)c3)C(=O)O)cc2)c1 | – | 0.54 nM | – | –
40 | CN(C)C(=O)c1ccccc1-c1ccc(C[C@H](NC(=O)[C@]2(C)CCCN2S(=O)(=O)c2cc(Cl)cc(Cl)c2)C(=O)O)cc1 | 82.7 nM | 0.22 nM | – | –

Reference: ChEMBL document CHEMBL1133808, “The discovery of sulfonylated dipeptides as potent VLA-4 antagonists” (Bioorg Med Chem Lett, 2001)
